In the NIST ThermoML archive (doi:10.1016/j.jct.2010.08.004):

Assay: mn = molality of the nth substance listed, in mol/kg
Conditions: 101 kPa, Liquid, Vibrating tube method

CC(C)C[C@H](N)C(=O)O [L-leucine] + O
mass density [kg/m3]
Conditions	m1 = 0.03401	m1 = 0.03488	m1 = 0.05007	m1 = 0.08154	m1 = 0.119	m1 = 0.1427
293.15 K	999.039	999.061	999.427	1000.18	1001.08	1001.64
298.15 K	997.855	997.877	998.236	998.978	999.854	1000.41
303.15 K	996.441	996.462	996.817	997.55	998.417	998.966
308.15 K	994.81	994.83	995.182	995.908	996.767	997.31

NCC(=O)O [2-aminoacetic acid] + O
mass density [kg/m3]
Conditions	m1 = 0.05482	m1 = 0.1106	m1 = 0.1792	m1 = 0.2044	m1 = 0.2754	m1 = 0.2966
293.15 K	999.976	1001.75	1003.91	1004.69	1006.9	1007.58
298.15 K	998.789	1000.54	1002.68	1003.46	1005.64	1006.28
303.15 K	997.364	999.102	1001.22	1002	1004.17	1004.81
308.15 K	–	997.455	999.562	1000.33	1002.5	1003.13

CC(C)[C@H](N)C(=O)O [L-valine] + O
mass density [kg/m3]
Conditions	m1 = 0.04524	m1 = 0.09973	m1 = 0.152	m1 = 0.1964	m1 = 0.2542	m1 = 0.2955
293.15 K	999.424	1000.87	1002.24	1003.4	1004.9	1006.01
298.15 K	998.244	999.672	1001.03	1002.18	1003.67	1004.72
303.15 K	996.827	998.242	999.59	1000.73	1002.2	1003.25
308.15 K	995.195	996.6	997.939	999.067	1000.53	1001.56
